SMILES strings stand for the structures.

Experimental findings from article PMC8704648 (Pharmaceutics, 2021) are described below.

For the data set the following is noted: TG, oxidizing atmosphere.

Consider `COc1ccc2cc([C@H](C)C(=O)O)ccc2c1` [Naproxen, (+)-(S)-2-(6-Methoxynaphthalen-2-yl)propanoic acid], for which the “Tonset, the onset of the thermal degradation” value is 249.9 °C.
